Assay results reported in publication PMC6328172, “5-HT2 receptor binding, functional activity and selectivity in N-benzyltryptamines” (PLoS ONE, 2019).

What was measured:
head twitch response [1] = test: Mouse head twitch response (HTR) assay (literature); format: in vivo; conditions: from the HTR ED50 values
5-HT2A receptor = conditions: described by Nichols; cited from earlier work
head twitch response [2] = conditions: cited from earlier work
5-HT2C receptor = conditions: cited from earlier work
5-HT2A receptors = conditions: cited from earlier work

Structure (SMILES) | fold higher in vivo potency (HTR) than compound 38 (head twitch response [1]) | Ki (5-HT2A receptor) | ED50 in the mouse head twitch response (HTR) assay (head twitch response [2]) | agonist character at 5-HT2C (in words) (5-HT2C receptor) | pEC50(2A) (5-HT2A receptors; Fig 6) | efficacy at 5-HT2A receptors (5-HT2A receptors; partial agonist)
COc1cc(CCNCc2ccccc2OC)c(OC)cc1I [Compound 25I-NBOMe, 4-iodo-2,5-dimethoxy-N-(2-methoxybenzyl)phenethylamine, reference compound] | 40 fold | 0.52 nM | 0.078 mg/kg | – | – | –
C[C@H]1CNCCc2ccc(Cl)cc21 [lorcaserin, 1(R)-8-chloro-1-methyl.2,3,4,5-tetrahydro-(1H)-3-benzazepine] | – | – | – | full 5-HT2C agonist | 6.8 | about 70%
